One block for each compound: values may come before it.
How the values were obtained:
CT26 colon carcinoma [1] = assay: Tumor growth inhibition, weekly intratumoral doses, CT26 tumor bearing mice (Example B3); assay type: in vivo, Balb/c mice; conditions: intratumoral on days 8, 16, 23; 1 μg molar equivalent of IMDQ (64-53a, 64-54a) or 0.63 ug (64-10a); to day 27
Description: The effect of weekly intratumoral doses of Compound No. 64-53a, Compound No. 64-54a, Compound No. 64-10a, or a PBS vehicle control on tumor growth inhibition was assessed in syngeneic CT26 colon carcinoma-bearing Balb/c mice. Compound No. 64-53a differs from Compound No. 64-53 in that it contains a monomethyl group adjacent to the disulfide cleavable linker rather than the disulfide variant. Compound No. 64-54a differs from Compound No. 64-54 in that it contains a (PEG)4 to the N-terminus of the peptide cleavable linker rather than a (PEG)12 variant. […] Compound No. 64-10a is the free amine (i.e., unconjugated) form of Compound No. 64-10, the structure of which is shown in Table 1. All in vivo procedures were conducted in accordance with approved Institutional Animal Care and Use Committee (IACUC) protocols. The animals were housed in a facility that is accredited by the Association for Accreditation and Laboratory Animal Care (AALAC, Frederick, Md.). […]
(§1) On day 0, mice were anesthetized with 1% isoflurane and 80,000 CT26 tumor cells in 200 μL of RMPI-1640 culture media plus 2.5% FBS were injected subcutaneously in the right flank. […] Tumor sizes were measured twice weekly from day 7 through day 27 with calipers, with tumor volumes calculated using the following formula: length, multiplied by width, multiplied by width, divided by 2.

TLR7 = molecular target: T1, TLR7 (Homo sapiens, UniProt Q9NYK1); assay: TLR7 in vitro potency; assay type: cell-based
T1 sequence (Q9NYK1 27-1049): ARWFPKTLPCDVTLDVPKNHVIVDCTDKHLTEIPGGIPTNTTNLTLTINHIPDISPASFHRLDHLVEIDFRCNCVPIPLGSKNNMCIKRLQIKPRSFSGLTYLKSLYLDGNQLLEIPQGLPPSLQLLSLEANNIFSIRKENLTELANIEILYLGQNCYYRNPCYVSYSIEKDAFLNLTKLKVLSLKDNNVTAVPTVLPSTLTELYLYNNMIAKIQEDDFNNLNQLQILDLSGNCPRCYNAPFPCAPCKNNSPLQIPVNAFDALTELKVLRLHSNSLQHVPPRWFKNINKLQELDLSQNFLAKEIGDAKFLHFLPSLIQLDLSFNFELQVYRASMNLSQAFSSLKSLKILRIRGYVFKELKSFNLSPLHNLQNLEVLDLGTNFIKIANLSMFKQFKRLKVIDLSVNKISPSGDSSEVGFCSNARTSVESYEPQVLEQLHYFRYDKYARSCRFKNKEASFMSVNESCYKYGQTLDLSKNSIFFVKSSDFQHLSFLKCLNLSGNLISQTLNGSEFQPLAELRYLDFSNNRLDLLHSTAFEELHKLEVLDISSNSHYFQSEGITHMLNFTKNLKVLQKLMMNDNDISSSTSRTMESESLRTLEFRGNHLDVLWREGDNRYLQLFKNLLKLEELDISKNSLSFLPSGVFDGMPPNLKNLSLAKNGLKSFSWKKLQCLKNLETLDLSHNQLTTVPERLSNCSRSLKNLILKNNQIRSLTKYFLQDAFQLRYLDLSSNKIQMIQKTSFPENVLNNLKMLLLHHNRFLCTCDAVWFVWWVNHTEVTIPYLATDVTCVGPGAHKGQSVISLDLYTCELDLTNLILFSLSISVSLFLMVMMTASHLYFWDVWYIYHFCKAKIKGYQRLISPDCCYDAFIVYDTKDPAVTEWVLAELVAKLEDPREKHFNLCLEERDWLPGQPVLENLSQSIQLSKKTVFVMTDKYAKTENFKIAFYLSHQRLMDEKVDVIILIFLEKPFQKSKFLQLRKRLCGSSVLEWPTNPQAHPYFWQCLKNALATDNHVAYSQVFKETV

CT26 colon carcinoma [2] = assay: Tumor growth inhibition, weekly intratumoral doses, CT26 tumor bearing mice (Example B4); assay type: in vivo, Balb/c mice; conditions: 500 ng IMDQ equivalent mass intratumorally on days 9, 16, 23 and 28; single flank tumor
Description: Compound No. 64-70 is a non-cleavable variant. All in vivo procedures were conducted in accordance with approved Institutional Animal Care and Use Committee (IACUC) protocols. The animals were housed in a facility that is accredited by the Association for Accreditation and Laboratory Animal Care (AALAC, Frederick, Md.). Wild-type female Balb/c mice (15-20 g) were obtained from Envigo (Hayward, Calif.) and acclimated for 2-3 days prior to use.
as §1, with “On experimental” for “On”, “flank. Tumors were allowed to grow until they were ˜50 mm^3, at which point animals were assigned to groups, 8 mice per group, to begin treatment.” for “flank.”, “30” for “27”

[3] = system: IL-6, IL-12p40, and TNFα protein levels; assay: Serum cytokine levels by ELISA after single subcutaneous footpad injection; assay type: in vivo, BALB/c mice; conditions: 2 hours after footpad injection
Description: (§2) Blood was drawn after 2 hours, serum samples were prepared and the IL-6, IL-12p40, and TNFα protein levels were measured by ELISA. Lower limit of quantification (LLOQ) for each of these assays was 31.3 pg/mL, and the dotted lines on graphs represent the LLOQ multiplied by serum dilution factor. Popliteal lymph nodes (draining node for the site of injection) were removed after 6 hours and stored in RNAlater (Qiagen, Hilden Del.) prior to tissue homogenization and isolation of RNA for gene expression analysis by TaqMan® using a StepOnePlus Real Time PCR system (Applied Biosystems, Foster City Calif.). Gene expression data are expressed as fold increase in gene induction relative to PBS control (mean±SEM).

CT26 colon carcinoma [4] = assay: Tumor growth inhibition in combination with anti-PD-1, two contralateral CT26 tumors (Example B6); assay type: in vivo, Balb/c mice; conditions: 500 ng IMDQ equivalent intratumorally in combination with anti-PD-1 250 μg intraperitoneally
Description: All in vivo procedures were conducted in accordance with approved Institutional Animal Care and Use Committee (IACUC) protocols. The animals were housed in a facility that is accredited by the Association for Accreditation and Laboratory Animal Care (AALAC, Frederick, Md.). Wild-type female Balb/c mice (15-20 g) were obtained from Envigo (Hayward, Calif.) and acclimated for 2-3 days prior to use. On experimental day 0, mice were anesthetized with 1% isoflurane, and 80,000 CT26 tumor cells in 200 uL of RMPI-1640 culture media plus 2.5% fetal bovine serum were injected subcutaneously in both the right and left flanks. Tumors (left and right) were allowed to grow until day 9, when the right and left flank tumor sizes had reached approximately 35 mm^3, at which point mice were injected intraperitoneally with 250 μg of anti-PD-1 antibody formulated in PBS or a PBS vehicle control. The anti-PD-1 treatments were repeated on experimental days 12, 16, 20, 23, and 28. On experimental day 15, when the right (injected) and left (distal) flank tumors had reached approximately 100 mm^3, mice were randomized into treatment groups with 10 mice per group. […] Tumor sizes were measured twice weekly from days 15 through day 30 with calipers, with tumor volumes calculated using the formula: length, multiplied by width, multiplied by width, divided by 2.

CD86 = assay: APC maturation marker CD86 by flow cytometry after subcutaneous footpad injection; assay type: in vivo, BALB/c mice; conditions: 1.8 μg IMDQ molar equivalents, both hind footpads, 24 hours
Description: Popliteal lymph nodes and spleens were harvested after 24 hours, and single cell suspensions were prepared for subsequent staining and analysis by flow cytometry using antibodies to cell surface markers to identify different APCs and lymphocyte cell populations.

[5] = system: interferon-related genes (TLR7-mediated gene induction); assay: Gene expression in popliteal lymph nodes after single subcutaneous footpad injection; assay type: in vivo, BALB/c mice; conditions: 0.04 μg
Description: as §2

EC50 (TLR7): 2 nM
Structure (SMILES): CCCCCCCCCCCCCC(=O)NCc1ccc(Cn2c(CCCC)nc3c(N)nc4ccccc4c32)cc1 [Compound No. 64-10a, N-(4-((4-amino-2-butyl-1H-imidazo[4,5-c]quinolin-1-yl)methyl)benzyl)tetradecanamide]
CT26 tumor growth control compared to the vehicle control (CT26 colon carcinoma [1]): significant CT26 tumor growth control
in vitro and in vivo TLR7 agonist potency relative to IMDQ (TLR7; data not shown): equal in vitro and in vivo TLR7 agonist potency to IMDQ

Structure (SMILES): CCCCc1nc2c(N)nc3ccccc3c2n1Cc1ccc(CNC(=O)OCc2ccc(SCCNC(=O)CN=[N+]=[N-])cc2)cc1 [Compound No. 64-70]
CT26 tumor growth inhibition (CT26 colon carcinoma [2]): no CT26 tumor growth inhibition

Structure (SMILES): CCCCc1nc2c(N)nc3ccccc3c2n1Cc1ccc(CN)cc1 [IMDQ, 1-(4-aminomethylbenzyl)-2-butyl-1H-imidazo[4,5-c]quinolin-4-amine]
serum IL-12p40 ([3]; 1 μg): levels above background
serum IL-6 ([3]; 5 μg): elevated levels
serum IL-12p40 ([3]; 5 μg): elevated levels
serum TNFα ([3]; 5 μg): elevated levels
tumor growth control in the injected tumor (CT26 colon carcinoma [4]): comparable improvements in tumor growth control over either agent administered individually
tumor growth control in the uninjected tumor (CT26 colon carcinoma [4]): comparable improvements in tumor growth control over either agent administered individually
expression level of APC maturation marker CD86 in popliteal lymph nodes (CD86): induced activation/maturation of cells
expression level of CD86 on APCs in the spleen (CD86): comparable
gene expression response in popliteal lymph nodes at the lowest dose [5]: induced gene expression

Reference: patent US10722591B2, “Cleavable conjugates of TLR7/8 agonist compounds, methods for preparation, and uses thereof” (Dynavax Technologies Corporation, priority 2017, dated 2020)
